Reference: US20260344668A1, “PHENYLPYRAZOLE COMPOUND, AND PLANT DISEASE CONTROL METHOD” (priority 2022, published 2026)

Experiments:
Phakopsora pachyrhizi [1] = test: Test Example 15 Control Test Against Soybean Rust Fungus (spore germination, 96 well titer plate); type: cell-based; conditions: treatment concentration 1 ppm, 23° C., several hours
Protocol: (§1) The term of “non-treated well” in Test Example 4, Test Example 5, and Test Example 6 represents a well wherein a test was carried out under the same conditions as those described in each Test Example except for dispensing DMSO instead of a diluted solution with DMSO comprising the Present compound. Also, the term of “non-treated” in Test Examples 15 to 17 represents a test which was carried out under the same conditions as those described in each Test Example except for dispensing DMSO instead of a diluted solution with DMSO comprising the Present compound. Also, the term of “non-treated leaf disk” in Test Example 7 represents a leaf disk wherein a test was carried out under the same conditions as those described in the Test Example except for dispensing DMSO instead of a diluted solution with DMSO comprising the Present compound. Also, the term of “non-treated” in Test Example 10 and Test Example 11 means that a diluted solution with water of a formulation comprising the Present compound was not sprayed.
The Present compound was diluted with DMSO to obtain a diluted solution containing 150 ppm of the compound, and 1 μL of the diluted solution was dispensed into a titer plate (96 well), and thereto was then dispensed 149 μL of an aqueous suspension (1.0×10^4/mL) of spores of Phakopsora pachyrhizi to which spores of Phakopsora pachyrhizi were suspended in advance. This plate was cultured at 23° C. for several hours, and then germinated spores of Phakopsora pachyrhizi were counted. As a result, when the treatment concentration was 1 ppm, the number of germinated spores in each well comprising any one of the Present compound 1, 11, 17, 18, 20, 23, 30, 33, 34, 35, 36, 37, 38, 39, 40, 41, 42, 43, 44, 46, 47, 48, 49, 50, 51, 52, 53, 54, 55, 56, 57, 58, 62, 63, 64, 65, 66, 67, 68, 69, 70, 71, 72, 73, 74, 75, 76, 77, 78, 79, 80, 81, 82, 83, 84, 85, 86, 87, 88, 89, 90, 91, 92, 93, 94, 95, 96, 97, 98, 99, 100, 101, or 102 as the test compound was 50% or less relative to the number of germinated spores in the non-treated well.

[2] = test system: soybean rust fungus (Phakopsora pachyrhizi) having an amino acid substitution of F129L in a mitochondrial cytochrome b protein; test: Test Example 7 Control Test Against Soybean Rust (leaf disk); type: in vivo; conditions: 200 ppm, 10 μL per soybean leaf disk (cultivar: Kurosengoku), inoculated after 1 day
Protocol: as §1
A true leaf of a soybean (cultivar: Kurosengoku) was cut into a diameter of 1 cm to prepare each leaf disk. To each well of a 24 well microplate was dispensed 1 mL of an agar medium (agar concentration 1.2%), and then one of said leaf disk was placed on the agar medium in each well. To a mixture of Sorpol (registered trademark) 1200KX (0.5 μL), DMSO (4.5 μL), and xylene (5 μL) was added a DMSO solution (20 μL) comprising a test compound (10000 ppm), and the resulting mixture was mixed. The resulting mixture was diluted with ion exchange water to prepare a mixture comprising a prescribed concentration of the test compound.
The resulting mixture was sprayed into each leaf disk at a ratio of 10 μL per leaf disk. After 1 day, an aqueous suspension of spores of soybean rust fungus (Phakopsora pachyrhizi) having an amino acid substitution of F129L in a mitochondrial cytochrome b protein (1.0×10^5/mL) was inoculated by spraying on each leaf disk. After the inoculation, the microplate was placed into an artificial climate chamber (Lighting: 6 hours, Lights-out: 18 hours, Temperature: 23° C., Humidity: 60%). After 1 day, the leaf disks were air-dried until water droplets on the surfaces of the leaf disks disappeared, and the microplate was placed into the artificial climate chamber again for 12 days. Then, lesion area of soybean rust was investigated. As a result, when the prescribed concentration was 200 ppm, each lesion area of leaf disk treated with any one of the Present compound 9, 10, 11, 13, 14, 15, 16, 17, 18, 20, 32, 33, 34, 35, 36, 37, 38, 39, 40, 42, 43, 44, 47, 48, 49, 50, 51, 52, 53, 55, 56, 57, 58, 62, 63, 64, 65, 66, 67, 68, 69, 70, 71, 73, 74, 75, 76, 77, 78, 79, 80, 81, 82, 83, 84, 85, 86, 87, 88, 89, 90, 91, 92, 93, 94, 95, 96, 97, 98, 99, 100, 101, or 102 as the test compound was 30% or less relative to the lesion area of non-treated leaf disk.

Phakopsora pachyrhizi [3] = test: Test Example 11 Control Test Against Soybean Rust (pot test, spraying before inoculation); type: in vivo; conditions: 200 ppm foliage spray, soybeans (Kurosengoku), inoculated after 2 to 5 days
Protocol: as §1
A plastic pot was filled with soil, soybeans (cultivar: Kurosengoku) were seeded thereto, and cultured in a greenhouse for 10 to 14 days. The Present compound 9, 10, 11, 13, 14, 15, 17, 18, 20, 21, 22, 23, 26, 27, 33, 34, 35, 36, 37, 38, 39, 40, 41, 42, 43, 44, 46, 47, 53, 54, 55, 56, 57, 58, 66, 67, 68, 69, 70, 71, 73, 74, 75, 76, 77, 78, 79, 80, 81, 82, 83, 84, 85, 86, 87, 88, 89, 90, 91, 92, 93, 94, 95, 96, 97, 98, 99, 100, 101, or 102 formulated according to the method described in the Formulation Example 1 was mixed with water in such a way that the concentration thereof was 200 ppm, and the resulting mixture was sprayed to foliage of the above soybeans so as to adequately adhere onto the surfaces of leaves of the above soybeans. After spraying the mixture, the soybeans were air-dried. After 2 to 5 days, an aqueous suspension of spores of Phakopsora pachyrhizi was inoculated by spraying to the soybeans. After the inoculation, the soybeans were placed in a greenhouse at 23° C. in daytime and at 20° C. in nighttime under a humid condition for 1 to 2 day(s), then cultured in a greenhouse for 12 days, and then a lesion area was investigated. As a result, the lesion area in the soybeans treated with each of the above Present compound was 30% or less relative to the lesion area in the non-treated soybeans.

SMILES	number of germinated spores relative to the non-treated well (Phakopsora pachyrhizi [1]) [%]	lesion area relative to the lesion area of non-treated leaf disk [2] [%]	lesion area relative to the lesion area in the non-treated soybeans (Phakopsora pachyrhizi [3]) [%]
COc1ccc(-c2ccn(S(=O)(=O)c3cccnc3)n2)cc1 [compound 58]	≤ 50	≤ 30	≤ 30
O=S(=O)(c1cccs1)n1ccc(-c2ccc3ocnc3c2)n1 [compound 67]	≤ 50	≤ 30	≤ 30
O=S(=O)(c1ccco1)n1ccc(-c2cc(F)cc(F)c2)n1 [compound 73]	≤ 50	≤ 30	≤ 30
O=S(=O)(c1ccoc1)n1ccc(-c2cc(F)cc(F)c2)n1 [compound 74]	≤ 50	≤ 30	≤ 30
O=S(=O)(c1cccs1)n1ccc(-c2cc(F)cc(F)c2)n1 [compound 75]	≤ 50	≤ 30	≤ 30
O=S(=O)(c1ccco1)n1ccc(-c2ccccc2)n1 [compound 85]	≤ 50	≤ 30	≤ 30
O=S(=O)(c1ccoc1)n1ccc(-c2ccccc2)n1 [compound 86]	≤ 50	≤ 30	≤ 30
O=S(=O)(c1cccs1)n1ccc(-c2ccccc2)n1 [compound 87]	≤ 50	≤ 30	≤ 30
O=S(=O)(c1ccco1)n1ccc(-c2ccc(F)cc2)n1 [compound 88]	≤ 50	≤ 30	≤ 30
O=S(=O)(c1cccs1)n1ccc(-c2ccc(F)cc2)n1 [compound 90]	≤ 50	≤ 30	≤ 30
O=S(=O)(c1ccco1)n1ccc(-c2ccc(F)c(F)c2)n1 [compound 91]	≤ 50	≤ 30	≤ 30
O=S(=O)(c1ccco1)n1ccc(-c2cccc(F)c2)n1 [compound 94]	≤ 50	≤ 30	≤ 30
O=S(=O)(c1ccoc1)n1ccc(-c2cccc(F)c2)n1 [compound 95]	≤ 50	≤ 30	≤ 30
O=S(=O)(c1cccnc1)n1ccc(-c2cc(F)cc(F)c2)n1 [compound 98]	≤ 50	≤ 30	≤ 30
